From the RepoRT retention time repository (doi:10.1007/s11306-011-0298-z)

Experiment: RP, Waters ACQUITY UPLC HSS T3, 100 × 2.1 mm, 1.8 µm, 30 °C, 0.3 mL/min, estimated dead time 0.73 min; A: water + 0.1% formic acid, pH 3; B: methanol + 0.1% formic acid, pH 3; gradient (min/%B) 0/0 6/0 56/100 60/100
Settings: stereoisomer not certain

Compound	LC retention time
CC(C)=CCCC(C)=CCOC1OC(CO)C(O)C(O)C1O (stereo unspecified) [geranyl glucoside]	36.7 min
CC(C)=CCCC(C)=CCOC(=O)Cc1ccccc1 [geranyl phenylacetate]	54.6 min
CCC(=O)OCC=C(C)CCC=C(C)C [geranyl propionate]	48.2 min
C=C1CC23CC1(O)CCC2C12C=CC(O)C(C)(C(=O)O1)C2C3C(=O)O (stereo unspecified) [gibberellic acid]	25.5 min
O=C(O)C(O)C(O)C(O)C(O)CO (stereo unspecified) [gluconic acid]	1.4 min
O=P(O)(O)OCC1OC(O)C(O)C(O)C1O (stereo unspecified) [glucose-6-phosphate]	1.22 min
O=C(O)CCCC(=O)O [glutaric acid]	10.2 min
NC(CCC(=O)NC(CSSCC(NC(=O)CCC(N)C(=O)O)C(=O)NCC(=O)O)C(=O)NCC(=O)O)C(=O)O (stereo unspecified) [glutathione disulfide]	9.68 min
O=C(O)C(O)CO (stereo unspecified) [glyceric acid]	1.45 min
NCC(=O)O [glycine]	1.22 min
O=C(O)CO [glycolic acid]	2.3 min
O=CC(=O)O [glyoxylic acid]	1.3 min
COc1ccccc1O [guaiacol]	22.5 min
N=C(N)N [guanidine]	1.3 min
Nc1nc2nc[nH]c2c(=O)[nH]1 [guanine]	3.21 min
COc1ccc(C2CC(=O)c3c(O)cc(O)cc3O2)cc1O (stereo unspecified) [hesperetin]	34.8 min
CCCCCC(=O)O [hexanoic acid]	30.9 min
CCCCCCN [hexylamine]	15.1 min
O=C(O)CNC(=O)c1ccccc1 [hippuric acid]	17.3 min
NCCc1cnc[nH]1 [histamine]	1.1 min
CC(CCC(=O)O)C1CCC2C3CC(O)C4CC(O)CCC4(C)C3CCC12C (stereo unspecified) [hyodeoxycholic acid]	46.4 min
O=C(O)c1cc2ccccc2[nH]1 [indole-2-carboxylic acid]	38.5 min
O=C(O)c1c[nH]c2ccccc12 [indole-3-carboxylic acid]	25.6 min
O=C(O)CCc1c[nH]c2ccccc12 [indole-3-propionic acid]	30.3 min
O=C(O)C(=O)Cc1c[nH]c2ccccc12 [indole-3-pyruvic acid]	30.3 min
c1ccc2[nH]ccc2c1 [indole]	28.1 min
Oc1ccc(C2Oc3cc(O)cc4c3C2c2cc(O)cc(O)c2C(c2ccc(O)cc2)C4C2c3cc(O)cc4c3C(c3cc(O)cc(O)c3C2c2ccc(O)cc2)C(c2ccc(O)cc2)O4)cc1 (stereo unspecified) [isohopeaphenol]	25.9 min

Compound	LC retention time
CC(C)CCN [isopentylamine]	6.9 min
CC(C)C(O)(CC(=O)O)C(=O)O (stereo unspecified) [isopropyl malic acid]	18.1 min
COc1cc(-c2oc3cc(O)cc(O)c3c(=O)c2OC2OC(CO)C(O)C(O)C2O)ccc1O (stereo unspecified) [isorhamnetin 3-glucoside]	31.5 min
COc1cc(-c2oc3cc(O)cc(O)c3c(=O)c2OC2OC(COC3OC(C)C(O)C(O)C3O)C(O)C(O)C2O)ccc1O (stereo unspecified) [isorhamnetin 3-rutinoside]	31.7 min
COc1cc(-c2oc3cc(O)cc(O)c3c(=O)c2O)ccc1O [isorhamnetin]	37.1 min
COc1cc(C=Cc2cc(O)cc(OC3OC(CO)C(O)C(O)C3O)c2)ccc1O (stereo unspecified) [isorhapontin]	26.1 min
CCC=CCC1C(=O)CCC1CC(=O)O (stereo unspecified) [jasmonic acid]	33.7 min
O=C(O)C1OC(Oc2c(-c3ccc(O)cc3)oc3cc(O)cc(O)c3c2=O)C(O)C(O)C1O (stereo unspecified) [kaempferol 3-O-glucuronide]	30.7 min
O=c1c(OC2OC(CO)C(O)C(O)C2O)c(-c2ccc(O)cc2)oc2cc(O)cc(O)c12 (stereo unspecified) [kaempferol 3-glucoside]	31.2 min
CC1OC(OCC2OC(Oc3c(-c4ccc(O)cc4)oc4cc(O)cc(O)c4c3=O)C(O)C(O)C2O)C(O)C(O)C1O (stereo unspecified) [kaempferol 3-rutinoside]	31.4 min
O=c1c(O)c(-c2ccc(O)cc2)oc2cc(O)cc(O)c12 [kaempferol]	36.6 min
CC(O)C(=O)O (stereo unspecified) [lactic acid]	2.51 min
CC(C)=CCCC(C)C1CCC2(C)C3=C(CCC12C)C1(C)CCC(O)C(C)(C)C1CC3 (stereo unspecified) [lanosterol]	58.3 min
COc1cc(-c2oc3cc(O)cc(O)c3c(=O)c2O)cc(O)c1O [laricitrin]	34.7 min
CCCCCCCCCCCCCCCCCCCCCCCC(=O)O [lignoceric acid]	60.2 min
C=CC(C)(CCC=C(C)C)OC(=O)c1ccccc1 (stereo unspecified) [linalyl benzoate]	50.8 min
CCCCC/C=C\C/C=C\CCCCCCCC(=O)O [linoleic acid]	53.6 min
CCC=CCC=CCC=CCCCCCCCC(=O)O [linolenic acid]	52.3 min
C=C(C)C1CCC2(C)CCC3(C)C(CCC4C5(C)CCC(O)C(C)(C)C5CCC43C)C12 (stereo unspecified) [lupeol]	60 min
O=c1cc(-c2ccc(O)c(O)c2)oc2cc(OC3OC(CO)C(O)C(O)C3O)cc(O)c12 (stereo unspecified) [luteolin 7-glucoside]	28.1 min
O=c1cc(-c2ccc(O)c(O)c2)oc2cc(O)cc(O)c12 [luteolin]	34.7 min
O=C(O)C=Cc1cccc(O)c1 [m-coumaric acid]	26.2 min
O=C(O)CC(=O)O [malonic acid]	2.11 min
COc1cc(-c2oc3cc(=O)cc(OC4OC(CO)C(O)C(O)C4O)c-3cc2OC2OC(CO)C(O)C(O)C2O)cc(OC)c1O (stereo unspecified) [malvidin-3,5-diglucoside]	20.7 min
COc1cc(-c2oc3cc(=O)cc(O)c-3cc2OC2OC(CO)C(O)C(O)C2O)cc(OC)c1O (stereo unspecified) [malvidin-3-galactoside]	24.2 min
OCC(O)C(O)C(O)C(O)CO (stereo unspecified) [mannitol]	1.38 min
OCC1OC(OCC2OC(O)C(O)C(O)C2O)C(O)C(O)C1O (stereo unspecified) [melibiose]	1.4 min

Now from value to compound:

LC retention time	Compound
59.2 min	CCCCCCCCCCCCCCCCCCCC(=O)OC [methyl arachidate]
61.2 min	CCCCCCCCCCCCCCCCCCCCCC(=O)OC [methyl behenate]
44.2 min	CCCCCCCC(=O)OC [methyl caprylate]
57.9 min	CCCCCCCC/C=C\CCCCCCCCCC(=O)OC [methyl cis-11-eicosenoate]
18.2 min	COC(=O)c1cc(O)c(O)c(O)c1 [methyl gallate]
57.1 min	CCCCCCCCCCCCCCCCC(=O)OC [methyl heptadecanoate]
38.4 min	CCC=CCC1C(=O)CCC1CC(=O)OC (stereo unspecified) [methyl jasmonate]
54.5 min	CCC=CCC=CCC=CCCCCCCCC(=O)OC [methyl linolenate]
54.4 min	CCCCCCCCCCCCCC(=O)OC [methyl myristate]
58.5 min	CCCCCCCCCCCCCCCCCCC(=O)OC [methyl nonadecanoate]
56.5 min	CCCCCCCCC=CCCCCCCCC(=O)OC [methyl oleate]
56.4 min	CCCCCCCCCCCCCCCC(=O)OC [methyl palmitate]
54.9 min	CCCCCCC=CCCCCCCCC(=O)OC [methyl palmitoleate]
57.8 min	CCCCCCCCCCCCCCCCCC(=O)OC [methyl stearate]
33.8 min	COC(=O)CCS [methyl-3-mercaptoproprionate]
2.4 min	COC1OC(C(=O)O)C(O)C(O)C1O (stereo unspecified) [methyl-glucuronide]
28.6 min	COc1cc(-c2oc3cc(=O)cc4oc(C)cc(c2OC2OC(CO)C(O)C(O)C2O)c43)cc(OC)c1O (stereo unspecified) [methylpyrano malvidin 3-glucoside]
34.5 min	COC(=O)c1ccccc1O [methylsalicylate ester]
31.9 min	O=c1c(O)c(-c2ccc(O)cc2O)oc2cc(O)cc(O)c12 [morin]

LC retention time	Compound
1.4 min	C1COCCN1 [morpholine]
1.3 min	O=C(O)C(O)C(O)C(O)C(O)C(=O)O (stereo unspecified) [mucic acid]
1.22 min	OC1C(O)C(O)C(O)C(O)C1O (stereo unspecified) [myo-inositol]
36.1 min	CCCCCCC(=O)O [n-heptanoic acid]
27.9 min	O=C1CC(c2ccc(O)cc2)Oc2cc(OC3OC(CO)C(O)C(O)C3O)cc(O)c21 (stereo unspecified) [naringenin 7-glucoside]
33.8 min	O=C1CC(c2ccc(O)cc2)Oc2cc(O)cc(O)c21 (stereo unspecified) [naringenin]
28.6 min	CC1OC(OC2C(Oc3cc(O)c4c(c3)OC(c3ccc(O)cc3)CC4=O)OC(CO)C(O)C2O)C(O)C(O)C1O (stereo unspecified) [naringin]
3.79 min	NC(=O)c1cccnc1 [nicotinamide]
4.64 min	CN1CCCC1c1cccnc1 (stereo unspecified) [nicotine]
8.3 min	Nc1ncnc2c1ncn2C1OC(COP(=O)(O)OP(=O)(O)OCC2OC([n+]3cccc(C(=O)O)c3)C(O)C2O)C(O)C1O (stereo unspecified) [nicotinic acid adenin dinucleotide]
2.1 min	O=C(O)c1ccc[n+](C2OC(COP(=O)([O-])O)C(O)C2O)c1 (stereo unspecified) [nicotinic acid mononucleotide]
2.98 min	O=C(O)c1cccnc1 [nicotinic acid]
43.1 min	CCCCCCCCC(=O)O [nonanoic acid]
28.1 min	O=C(O)C=Cc1ccccc1O [o-coumaric acid]
40 min	CCCCCCCC(=O)O [octanoic acid]
37.6 min	CCCCCCCCOC1OC(CO)C(O)C(O)C1O (stereo unspecified) [octyl glucopyranoside]
27.6 min	CCCCCCCCN [octylamine]
54.9 min	CCCCCCCCC=CCCCCCCCC(=O)O [oleic acid]
